Results published in publication PMC5923390, “Further New Diterpenoids as PTP1B Inhibitors from the Xisha Soft Coral Sinularia polydactyla” (Marine Drugs, 2018).
“And” between values parts separate entries of the source, which are not always exact repeats. Equal values may be shown once.

Target: T1, recombinant PTP1B catalytic domain (Homo sapiens, UniProt P18031)
T1 construct: Recombinant PTP1B catalytic domain was expressed and purified according to a previous report; made in house
T1 sequence (P18031 3-277 limits assumed): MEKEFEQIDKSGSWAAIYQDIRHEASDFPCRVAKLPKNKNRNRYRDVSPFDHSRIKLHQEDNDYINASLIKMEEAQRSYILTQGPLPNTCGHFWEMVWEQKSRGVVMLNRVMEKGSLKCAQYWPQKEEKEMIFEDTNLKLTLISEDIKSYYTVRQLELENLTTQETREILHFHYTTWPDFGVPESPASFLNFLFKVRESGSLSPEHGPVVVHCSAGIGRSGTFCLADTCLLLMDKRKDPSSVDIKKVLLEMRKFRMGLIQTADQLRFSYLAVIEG
Assay: PTP1B inhibitory activity assay (pNPP hydrolysis)
Type: biochemical
Settings: for PTP1B inhibitory activity (in words): in vitro, pNPP hydrolysis; for IC50: pNPP 2 mmol/L, 30 nmol/L recombinant PTP1B, MOPs pH 6.5, 30 °C, absorbance 405 nm, read-out: IC50 against PTP1B
Description: Recombinant PTP1B catalytic domain was expressed and purified according to a previous report. The enzymatic activities of the PTP1B catalytic domain were determined at 30 °C by monitoring the hydrolysis of pNPP. The dephosphorylation of pNPP generated product pNP, which was monitored at an absorbance of 405 nm by the EnVision multi label plate reader (Perkin Elmer Life Sciences, Boston, MA). In an atypical 100 µL assay mixture containing 50 mmol/L 3-[N-morpholino] propanesulfonic acid (MOPs), pH 6.5, 2 mmol/L pNPP, and 30 nmol/L recombinant PTP1B, activities were continuously monitored and the initial rate of hydrolysis was determined using the early linear region of the enzymatic reaction kinetic curve. The IC50 was calculated with Prism 4 software (Graphpad, San Diego, CA).

C=C[C@@]1(C)CC[C@H](/C(C)=C/C=C/C(C)(C)O)C[C@@H]1C(=C)C [Compound 6, fuscol]
PTP1B inhibitory activity (in words): inactive

CC1=CC=C(C(C)C)C(O)C(O)C(C)=CCCC(C)=CCC1 (centres unmarked) [Compound 10, sarcophytol B]
PTP1B inhibitory activity (in words): inactive

CC(=CC=CC(C)(C)O)C1CCC2(C)CCC=C(C)C2C1 (centres unmarked) [Compound 8, sinupol]
PTP1B inhibitory activity (in words): promising inhibitory activity | IC50: 63.9 µM

C=C[C@@]1(C)CC[C@H](/C(C)=C/C=C/C(C)(C)OC)C[C@@H]1C(=C)C [Compound 5, lobatetraene]
PTP1B inhibitory activity (in words): inactive

C=C1CCC=C(C)C(OC(C)=O)C(OC(C)=O)C(C(C)C)=CC2C(C)=CCC12 (centres unmarked) [Compound 9, sinulacetate]
PTP1B inhibitory activity (in words): promising inhibitory activity | IC50: 51.8 µM

CC1=CC[C@@H](O)[C@@]2(C)CC[C@H](/C(C)=C/C=C/C(C)(C)O)C[C@H]12 [Compound 7]
IC50: 75.5 µM and 72.4 µM
